In patent US7101878B1 (Agouron Pharmaceuticals, Inc., priority 1998, dated 2006):

Each compound was assayed against T1, mouse GnRH receptor (Mus musculus, UniProt Q01776) (assay: Radioligand binding, 125I-GnRH-A, 293 cells expressing mouse GnRH receptors). Settings: 10 uM; read-out: % Inhib. @ 10 uM mGnRH.
T1 construct: expressed in transfected cells; host or cells: 293 cells
T1 sequence (Q01776 1-327): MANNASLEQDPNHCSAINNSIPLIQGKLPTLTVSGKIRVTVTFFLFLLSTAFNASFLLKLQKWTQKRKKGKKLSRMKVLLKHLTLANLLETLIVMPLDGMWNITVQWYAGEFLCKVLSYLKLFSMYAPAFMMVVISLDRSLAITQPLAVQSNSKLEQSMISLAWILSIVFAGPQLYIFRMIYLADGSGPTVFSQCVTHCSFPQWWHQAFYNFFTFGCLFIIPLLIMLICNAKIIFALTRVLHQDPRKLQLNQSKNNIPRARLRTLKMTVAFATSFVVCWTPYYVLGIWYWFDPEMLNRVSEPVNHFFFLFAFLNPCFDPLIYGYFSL
Method: All compounds were diluted in 1% DMSO (final assay concentration) in binding assay buffer. […] Reactions were terminated by rapid filtration onto 96-well Packard GF/C filters soaked in 0.1% polyethyleneimine. Filters were washed three times with PBS buffer, dried and counted on a Packard Topcount by liquid scintillation counting.
Assay conditions were identical for assessing compound activities at other species. […] IC50 values for control peptides and test compounds were calculated utilizing GraphPad Prism™ software.
The reaction mixture was vortexed and incubated for 1 min at room temperature. After one min, the mixture was vortexed and allowed to incubate for an additional minute. 2 ml of 0.5 M acetic acid/1% BSA was added to the reaction tube and the mixture was added to a C18 Sep-Pak cartridge. The cartridge was washed with subsequent washes of 5 ml H2O and 5 ml 0.5M acetic acid and then eluted with 5×1 ml of 60% CH3CN/40% 0.5M acetic acid. The eluate was diluted with 3× volume of HPLC buffer A (0.1% TFA in H2O) and loaded onto a C18 column. […] The radioactive fractions (750 ed/fraction) are collected into clean polypropylene tubes containing 100 μl of 10% BSA. Fractions were assessed for biological activity by radioligand binding.
Work on `COC(CNC(=O)c1ccc(Cc2cc3c(cc2C)C(C)(C)CCC3(C)C)o1)OC` [drawing 1505] yielded an inhibition at 10 µM of 103%.
Work on `CCOC(=O)C1CCCCN1C(=O)c1ccc(Cc2cc3c(cc2C)C(C)(C)CCC3(C)C)o1` (stereo not shown) yielded an inhibition at 10 µM of 94%.
`Cc1cc2c(cc1Cc1ccc(C(=O)N3CCCC(C(N)=O)C3)o1)C(C)(C)CCC2(C)C` (stereo not shown) gave an inhibition at 10 µM of 69%.
`Cc1cc2c(cc1Cc1ccc(C(=O)N3CCC(C(=O)c4ccccc4)CC3)o1)C(C)(C)CCC2(C)C` [drawing 1495] was tested, and the inhibition at 10 µM was 59%.
For `CSCCCNC(=O)c1ccc(Cc2cc3c(cc2C)C(C)(C)CCC3(C)C)o1` [drawing 1586], the inhibition at 10 µM was 99%.
In the case of `Cc1cc2c(cc1Cc1ccc(C(=O)N[C@@H](C)C(O)c3ccccc3)o1)C(C)(C)CCC2(C)C` (stereo partly shown), the inhibition at 10 µM is reported as 63%.
In the case of `CCC(COC)NC(=O)c1ccc(Cc2cc3c(cc2C)C(C)(C)CCC3(C)C)o1` (stereo not shown), the inhibition at 10 µM is reported as 98%.
`Cc1ccc(N2CCN(C(=O)c3ccc(Cc4cc5c(cc4C)C(C)(C)CCC5(C)C)o3)CC2)c(C)c1` [drawing 1455] was tested, and the inhibition at 10 µM was 52%.
`COc1cc2c(cc1OC)C(CC#N)N(C(=O)c1ccc(Cc3cc4c(cc3C)C(C)(C)CCC4(C)C)o1)CC2` (stereo not shown) [drawing 1582] gave an inhibition at 10 µM of 52%.
Compound `Cc1cc2c(cc1Cc1ccc(C(=O)N3CC=C(n4c(=O)[nH]c5ccccc54)CC3)o1)C(C)(C)CCC2(C)C` has an inhibition at 10 µM of 85%.
With `Cc1cc2c(cc1Cc1ccc(C(=O)N3CCCCC3CCO)o1)C(C)(C)CCC2(C)C` (stereo not shown) the inhibition at 10 µM was 100%.
Work on `Cc1cc2c(cc1Cc1ccc(C(=O)N(CCC#N)Cc3ccccc3)o1)C(C)(C)CCC2(C)C` yielded an inhibition at 10 µM of 74%.
`Cc1cc2c(cc1Cc1ccc(C(=O)N3CCC(C(=O)c4ccc(F)cc4)CC3)o1)C(C)(C)CCC2(C)C` [drawing 1467] gave an inhibition at 10 µM of 63%.
For `COC(=O)C1CCCN1C(=O)c1ccc(Cc2cc3c(cc2C)C(C)(C)CCC3(C)C)o1` (stereo not shown) [drawing 1298], the inhibition at 10 µM was 97%.
With `Cc1cc2c(cc1Cc1ccc(C(=O)NCCc3c[nH]c4ccc(O)cc34)o1)C(C)(C)CCC2(C)C` [drawing 1526] the inhibition at 10 µM was 84%.
`Cc1cc2c(cc1Cc1ccc(C(=O)N3CCN(Cc4ccc(C(C)(C)C)cc4)CC3)o1)C(C)(C)CCC2(C)C` [drawing 1534] was tested, and the inhibition at 10 µM was 65%.
In the case of `Cc1cc2c(cc1Cc1ccc(C(=O)N(Cc3c[nH]c4ccccc34)C3CCCCC3)o1)C(C)(C)CCC2(C)C`, the inhibition at 10 µM is reported as 27%.
With `Cc1cc2c(cc1Cc1ccc(C(=O)N3CCc4ccccc4C3Cc3ccccc3)o1)C(C)(C)CCC2(C)C` (stereo not shown) [drawing 1515] the inhibition at 10 µM was 46%.
`Cc1cc2c(cc1Cc1ccc(C(=O)N(CCN3CCOCC3)Cc3ccccc3)o1)C(C)(C)CCC2(C)C` [drawing 1461] gave an inhibition at 10 µM of 91%.
`Cc1cc2c(cc1Cc1ccc(C(=O)N3CCN(CCCN(C)C)CC3)o1)C(C)(C)CCC2(C)C` was tested, and the inhibition at 10 µM was 96%.
For `Cc1cc2c(cc1Cc1ccc(C(=O)N(CCCCO)Cc3ccccc3)o1)C(C)(C)CCC2(C)C`, the inhibition at 10 µM was 99%.
`Cc1ccc(CN(CCc2ccc(Cl)cc2Cl)C(=O)c2ccc(Cc3cc4c(cc3C)C(C)(C)CCC4(C)C)o2)cc1` was tested, and the inhibition at 10 µM was 23%.
`CCN(Cc1ccccc1F)C(=O)c1ccc(Cc2cc3c(cc2C)C(C)(C)CCC3(C)C)o1` gave an inhibition at 10 µM of 86%.
Work on `Cc1cc2c(cc1Cc1ccc(C(=O)N[C@H](C)c3ccccc3)o1)C(C)(C)CCC2(C)C` yielded an inhibition at 10 µM of 72%.
For `Cc1cc2c(cc1Cc1ccc(C(=O)N(Cc3ccccc3)Cc3ccccn3)o1)C(C)(C)CCC2(C)C`, the inhibition at 10 µM was 98%.
`Cc1cc2c(cc1Cc1ccc(C(=O)NCCC3OCCO3)o1)C(C)(C)CCC2(C)C` [drawing 1591] gave an inhibition at 10 µM of 104%.
`Cc1cc2c(cc1Cc1ccc(C(=O)N3CCCC(C)C3)o1)C(C)(C)CCC2(C)C` (stereo not shown) was tested, and the inhibition at 10 µM was 97%.
For `Cc1cc2c(cc1Cc1ccc(C(=O)N3CCC[C@H]3CO)o1)C(C)(C)CCC2(C)C`, the inhibition at 10 µM was 93%.
Work on `CCN(C(=O)c1ccc(Cc2cc3c(cc2C)C(C)(C)CCC3(C)C)o1)C1C2CCC3CC32C1c1ccccc1` (stereo not shown) yielded an inhibition at 10 µM of 49%.
In the case of `Cc1cc2c(cc1Cc1ccc(C(=O)N3CCN(C4CCCCC4)CC3)o1)C(C)(C)CCC2(C)C` [drawing 1265], the inhibition at 10 µM is reported as 102%.
`CCN(CC)CCN(CC)C(=O)c1ccc(Cc2cc3c(cc2C)C(C)(C)CCC3(C)C)o1` showed an inhibition at 10 µM of 98%.
`COCC(C)NC(=O)c1ccc(Cc2cc3c(cc2C)C(C)(C)CCC3(C)C)o1` (stereo not shown) [drawing 1454] gave an inhibition at 10 µM of 91%.
Compound `Cc1cc2c(cc1Cc1ccc(C(=O)N(C)CCC3OCCO3)o1)C(C)(C)CCC2(C)C` [drawing 1583] has an inhibition at 10 µM of 96%.
`Cc1cc2c(cc1Cc1ccc(C(=O)N3CCN(Cc4ccc5c(c4)OCO5)CC3)o1)C(C)(C)CCC2(C)C` gave an inhibition at 10 µM of 66%.
In the case of `Cc1cc2c(cc1Cc1ccc(C(=O)N3CCCC(C)(C)C3)o1)C(C)(C)CCC2(C)C` [drawing 1523], the inhibition at 10 µM is reported as 98%.
Work on `CCC(CO)NC(=O)c1ccc(Cc2cc3c(cc2C)C(C)(C)CCC3(C)C)o1` (stereo not shown) [drawing 1481] yielded an inhibition at 10 µM of 89%.
For `CSc1ccc(CN(CCc2ccccn2)C(=O)c2ccc(Cc3cc4c(cc3C)C(C)(C)CCC4(C)C)o2)cc1`, the inhibition at 10 µM was 75%.
Compound `Cc1cc2c(cc1Cc1ccc(C(=O)NCCc3ccccc3)o1)C(C)(C)CCC2(C)C` [drawing 1452] has an inhibition at 10 µM of 73%.
`Cc1cc2c(cc1Cc1ccc(C(=O)N(C)CC(O)CO)o1)C(C)(C)CCC2(C)C` (stereo not shown) showed an inhibition at 10 µM of 69%.
With `CCC(CC)NC(=O)c1ccc(Cc2cc3c(cc2C)C(C)(C)CCC3(C)C)o1` [drawing 1546] the inhibition at 10 µM was 76%.

Same assay, conditions: 1 h, substrate remaining; 10 uM compound; closer to zero = closer to 100% inhibition; read-out: S%R 10 uM mGnRHR
Work on `Cc1cc2c(cc1Cc1ccc(C(=O)NC3(CO)CCCC3)o1)C(C)(C)CCC2(C)C` [Compound 550] yielded a remaining activity at 10 µM of 3%.
`Cc1cc2c(cc1Cc1ccc(C(=O)N3CCN(c4cccc(C)c4C)CC3)o1)C(C)(C)CCC2(C)C` [Compound 581] showed a remaining activity at 10 µM of 43%.
Compound `CC(=O)NCCNC(=O)c1ccc(Cc2cc3c(cc2C)C(C)(C)CCC3(C)C)o1` [Compound 476] has a remaining activity at 10 µM of 20%.
`Cc1cc2c(cc1Cc1ccc(C(=O)NC3CCN(Cc4ccccc4)C3)o1)C(C)(C)CCC2(C)C` (stereo not shown) [Compound 699] gave a remaining activity at 10 µM of -1%.
In the case of `Cc1cc2c(cc1Cc1ccc(C(=O)NCCc3cccnc3)o1)C(C)(C)CCC2(C)C` [Compound 457], the remaining activity at 10 µM is reported as -3%.
With `CCOC(=O)CCNC(=O)c1ccc(Cc2cc3c(cc2C)C(C)(C)CCC3(C)C)o1` [Compound 684] the remaining activity at 10 µM was 2%.
`Cc1cc2c(cc1Cc1ccc(C(=O)NC(CCCNC(N)N)C(=O)O)o1)C(C)(C)CCC2(C)C` (stereo not shown) [Compound 459] showed a remaining activity at 10 µM of 53%.
`Cc1cc2c(cc1Cc1ccc(C(=O)N(CCN(C)C)Cc3cccc4ccccc34)o1)C(C)(C)CCC2(C)C` [Compound 575] was tested, and the remaining activity at 10 µM was -3%.
Compound `Cc1cc2c(cc1Cc1ccc(C(=O)NCCc3c[nH]c4ccc(Cl)cc34)o1)C(C)(C)CCC2(C)C` [Compound 509] has a remaining activity at 10 µM of 16%.
`Cc1cc2c(cc1Cc1ccc(C(=O)NCc3ccc(-c4csnn4)cc3)o1)C(C)(C)CCC2(C)C` [Compound 478] was tested, and the remaining activity at 10 µM was 3%.
For `Cc1cc2c(cc1Cc1ccc(C(=O)NCC(C)(C)CO)o1)C(C)(C)CCC2(C)C` [Compound 601], the remaining activity at 10 µM was 17%.
`Cc1cc2c(cc1Cc1ccc(C(=O)NCCC3OCCO3)o1)C(C)(C)CCC2(C)C` [Compound 676] showed a remaining activity at 10 µM of -4%.
In the case of `Cc1cc2c(cc1Cc1ccc(C(=O)NC3CCCCC3Nc3nccc(NCC4CCCO4)n3)o1)C(C)(C)CCC2(C)C` (stereo not shown) [Compound 466], the remaining activity at 10 µM is reported as 30%.
`Cc1cc2c(cc1Cc1ccc(C(=O)NC(C)(C)C)o1)C(C)(C)CCC2(C)C` [Compound 533] showed a remaining activity at 10 µM of 29%.
Work on `Cc1cc2c(cc1Cc1ccc(C(=O)NCCCN3CCCCC3C)o1)C(C)(C)CCC2(C)C` (stereo not shown) [Compound 494] yielded a remaining activity at 10 µM of -7%.
With `Cc1cc2c(cc1Cc1ccc(C(=O)N(CCC(c3ccccc3)c3ccccc3)Cc3ccccn3)o1)C(C)(C)CCC2(C)C` [Compound 645] the remaining activity at 10 µM was 51%.
Compound `Cc1cnc(CNC(=O)c2ccc(Cc3cc4c(cc3C)C(C)(C)CCC4(C)C)o2)cn1` [Compound 525] has a remaining activity at 10 µM of -9%.
`Cc1cc2c(cc1Cc1ccc(C(=O)NC3CCCCC3Nc3ccnc(NCC4CCCO4)n3)o1)C(C)(C)CCC2(C)C` (stereo not shown) [Compound 481] was tested, and the remaining activity at 10 µM was 5%.
`Cc1cc2c(cc1Cc1ccc(C(=O)N(Cc3ccccc3)C(C)C)o1)C(C)(C)CCC2(C)C` [Compound 629] gave a remaining activity at 10 µM of 17%.
`COc1ccc(C(NC(=O)c2ccc(Cc3cc4c(cc3C)C(C)(C)CCC4(C)C)o2)C2CC2)cc1` (stereo not shown) [Compound 578] gave a remaining activity at 10 µM of 17%.
Compound `CSCCC(CO)NC(=O)c1ccc(Cc2cc3c(cc2C)C(C)(C)CCC3(C)C)o1` (stereo not shown) [Compound 675] has a remaining activity at 10 µM of -5%.
For `Cc1cc2c(cc1Cc1ccc(C(=O)N(CCCN(C)C)CCCN(C)C)o1)C(C)(C)CCC2(C)C` [Compound 700], the remaining activity at 10 µM was 30%.
Work on `CCN1CC(N(CCC(C)CCCC(C)(C)O)C(=O)c2ccc(Cc3cc4c(cc3C)C(C)(C)CCC4(C)C)o2)CN1CC` (stereo not shown) [Compound 660] yielded a remaining activity at 10 µM of -4%.
Work on `CCOC(CN(CCc1ccccc1)C(=O)c1ccc(Cc2cc3c(cc2C)C(C)(C)CCC3(C)C)o1)OCC` [Compound 689] yielded a remaining activity at 10 µM of 34%.
